Measurements: patent US6455248B1, “Reagents and kits for detecting fungal pathogens in a biological sample” (Miami University, priority 1996, dated 2002)

Tests used:
[1] = biological target: T1, α-aminoadipate reductase (AAR) (Candida albicans, UniProt Q12572); experiment: Feedback inhibition of aminoadipate reductase activity in dialyzed cell extract; type: biochemical; details: for AAR activity: cell extract alone 19.76
T1 construct: The crude extracts were dialyzed and used as the enzyme source for the AAR activity; endogenous in cells; host or cells: C. albicans cells, dialyzed crude extract
T1 sequence (Q12572 1-1391): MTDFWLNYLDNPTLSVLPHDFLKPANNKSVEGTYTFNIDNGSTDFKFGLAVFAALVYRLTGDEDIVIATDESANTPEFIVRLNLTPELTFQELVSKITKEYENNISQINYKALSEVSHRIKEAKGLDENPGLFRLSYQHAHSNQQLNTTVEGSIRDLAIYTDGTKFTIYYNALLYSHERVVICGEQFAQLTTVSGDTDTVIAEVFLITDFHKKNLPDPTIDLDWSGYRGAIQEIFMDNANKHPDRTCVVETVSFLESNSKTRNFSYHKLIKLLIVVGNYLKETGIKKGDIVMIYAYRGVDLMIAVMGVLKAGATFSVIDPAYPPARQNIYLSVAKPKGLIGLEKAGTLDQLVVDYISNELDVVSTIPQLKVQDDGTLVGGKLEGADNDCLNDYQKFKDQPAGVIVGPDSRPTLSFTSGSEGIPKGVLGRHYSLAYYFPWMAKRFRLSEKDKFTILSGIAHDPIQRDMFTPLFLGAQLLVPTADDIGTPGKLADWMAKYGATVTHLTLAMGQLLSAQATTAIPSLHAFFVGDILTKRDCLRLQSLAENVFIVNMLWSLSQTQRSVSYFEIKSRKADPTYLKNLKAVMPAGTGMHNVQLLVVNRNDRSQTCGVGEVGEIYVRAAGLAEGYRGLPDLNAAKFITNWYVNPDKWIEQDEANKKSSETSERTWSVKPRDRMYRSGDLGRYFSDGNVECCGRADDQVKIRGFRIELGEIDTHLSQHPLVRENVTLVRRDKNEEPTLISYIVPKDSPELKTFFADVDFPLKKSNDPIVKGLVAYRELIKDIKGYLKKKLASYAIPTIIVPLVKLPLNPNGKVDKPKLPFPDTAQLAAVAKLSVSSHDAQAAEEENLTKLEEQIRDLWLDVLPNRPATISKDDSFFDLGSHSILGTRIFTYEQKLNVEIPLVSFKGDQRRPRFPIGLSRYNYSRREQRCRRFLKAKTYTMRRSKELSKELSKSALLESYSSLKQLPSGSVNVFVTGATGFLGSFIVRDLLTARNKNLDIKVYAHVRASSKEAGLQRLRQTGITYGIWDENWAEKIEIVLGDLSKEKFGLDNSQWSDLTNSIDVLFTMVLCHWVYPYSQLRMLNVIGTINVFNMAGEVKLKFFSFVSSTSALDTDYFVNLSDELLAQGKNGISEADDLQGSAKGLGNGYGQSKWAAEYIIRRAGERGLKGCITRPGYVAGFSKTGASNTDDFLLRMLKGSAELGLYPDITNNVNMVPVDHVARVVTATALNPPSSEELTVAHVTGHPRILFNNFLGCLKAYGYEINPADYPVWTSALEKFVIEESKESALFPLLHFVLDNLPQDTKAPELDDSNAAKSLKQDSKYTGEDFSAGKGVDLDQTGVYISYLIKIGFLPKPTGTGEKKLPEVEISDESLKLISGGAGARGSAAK
Protocol: (§1) Cells were grown in appropriate media at 30° C. with constant shaking and harvested during the late logarithmic phase. Crude enzyme preparations were obtained by disruption of the cells in a Braun homogenizer flask in the case of S. cerevisiae (Sinha and Bhattacharjee 1971), and by vortexing with glass beads for 30 s with 30 s intervals at 4° C. for a total of 5 mins in case of C. albicans. The crude extracts were dialyzed and used as the enzyme source for the AAR activity. The amount of protein in the dialyzed extracts was determined according to the procedure of Bradford (1976).
The AAR activity was assayed using previously described procedure (Sagisaka and Shimura 1962). The reaction mixture consisted of DL aminoadipate, 12.5 mM; ATP, 15 mM; MgCl2, 10 mM; reduced glutathione, 1 mM; α-NADPH (tetra sodium salt), 0.625 mM; and Tris HCl, 250 mM (pH8.0). Dialysed cell extract was added to a final concentration of 0.02-1.0 mg of dialyzed protein. Tubes lacking aminoadipate were used as controls. The reaction mixtures were incubated at 30 ° C. for 1 h and terminated by the addition of Iml of 2% p-dimethylaminobenzaldehyde (PDAB) in 2-methoxyethanol. Activity of AAR was reported in units of A460 h-^1 mg protein-^1.
Feedback inhibition by the end product, lysine, was determined by addition of various concentrations of lysine to the reaction mixture. 50 mM lysine inhibited the AAR activity by 70%. However, when a lysine analog, [S-(2-amino ethyl)] L-Cysteine L-thialysine), was used, 1 mM thialysine was sufficient to abolish 92% of the enzyme activity (Table 5).

[2] = tested on: AAR of C. albicans WT 9517 cells; experiment: AAR activity of cells grown in different media; type: cell-based
Protocol: Yeast strains were maintained on yeast extract-peptone-dextrose medium (YEPD). Minimal medium (MM) consisted of 1% dextrose and 0.67% yeast nitrogen base without amino acid. Minimal medium was supplemented with L-lysine (50 μg/ml) where appropriate. Escherichia coli strains were maintained on Luria Bertani medium. Plasmid containing strains were maintained in L-agar containing ampicillin at a concentration of 50 μg/ml.
as §1
The AAR activity was assayed using previously described procedure (Sagisaka and Shimura 1962). […]
The AAR activity of C. albicans WT 9517 cells was determined for cells grown in minimal medium, minimal medium supplemented with lysine, and YEPD. […]

LYS2 mRNA = experiment: Northern blot analysis of LYS2 mRNA; type: cell-based; details: C. albicans WT9517 grown in minimal medium supplemented with lysine
Protocol: Total RNA was isolated from C. albicans WA95 17 cells grown in different media according to the procedure described by Sherman et al. (1986). Total RNA (20 μg/lane) was fractionated by electrophoresis on a 1% agarose gel, transferred to nylon membranes, and hybridized to LYS2 gene and 18 s rDNA radio-labelled probes. The 2.0 kb EcoRI PstI fragment of the LYS2 gene was labelled with [a^32P]DTP by a random primer kit (Gibco BRL) and used as a probe. A plasmid carrying the 18S rDNA was also labeled similarly and used as ribosomal probe. Hybridization was carried out at 60° C. in 0.5 M Sodium phosphate (pH 7.2), 7% SDS, 1% BSA, 1 mM EDTA (pH 8.0). The membrane was washed in 2×SSC and 0.1% SDS at room temperature for 30 min and followed by a wash in 0.5×SSC and 0.1% SDS at 60° C. for 30 min. The membrane was stripped by boiling in 0.1×SSC and 0.1% SDS for 30 min followed by washing with water at 65° C. for 30 min and then reprobed.
To determine if the LYS2 gene expression is controlled at the transcriptional level by lysine and by other amino acids in rich medium, total RNA was extracted from C. albicans WT9517 grown in minimal medium, minimal medium supplemented with lysine, and in YEPD medium. The blot was quantitated using a beta scanner and the AMBIS Image analysis software. […] The LYS2 mRNA level in YEPD grown cells could not be detected. […]

[3] = cell extract + 1 mM inhibitor in reaction mixture
[4] = cell extract + 10 mM inhibitor in reaction mixture

Row | SMILES | inhibition at 1000 µM ([1]; 1 mM in reaction mixture, read-out: inhibition of AAR enzyme activity) | AAR activity [1, 3] | AAR activity [1, 4] | repression of AAR activity compared to cells grown in minimal medium ([2]; cells grown in minimal medium supplemented with lysine) | AAR activity ([2]; cells grown in minimal medium supplemented with lysine (L-lysine 50 μg/ml), minimal medium alone 19.79) | AAR activity ([1]; cell extract + 50 mM inhibitor in reaction mixture) | inhibition at 50000 µM ([1]; read-out: inhibition of AAR activity) | level of LYS2 mRNA compared to cells grown in minimal medium (LYS2 mRNA)
1 | NCCSC[C@H](N)C(=O)O [thialysine, [S-(2-amino ethyl)] L-Cysteine] | 92% | 3.58 A460 h^−1 mg protein^−1 | 1.78 A460 h^−1 mg protein^−1 | – | – | – | – | –
2 | NCCCC[C@H](N)C(=O)O [lysine, L-lysine] | – | 19.34 A460 h^−1 mg protein^−1 | 9.68 A460 h^−1 mg protein^−1 | 40% | 11.87 A460 h^−1 mg protein^−1 | 5.92 A460 h^−1 mg protein^−1 | 70% | significantly lower
